The text below walks through data of the supplement of paper PMC10307832.

Common to all, as to experiment: relative viability (nuclei count vs DMSO), 5 days (fraction); higher = more cells survive
Compound in the experiment “Vemurafenib + Dasatinib”: CCCS(=O)(=O)Nc1ccc(F)c(C(=O)c2c[nH]c3ncc(-c4ccc(Cl)cc4)cc23)c1F [Vemurafenib] + Cc1nc(Nc2ncc(C(=O)Nc3c(C)cccc3Cl)s2)cc(N2CCN(CCO)CC2)n1 [Dasatinib] (partner 0.075 µM)
Summed up:
(§1)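 Medians of duplicate plates are given as relative viability. That measure is the nuclei count in treated wells divided by the count in vehicle wells. Counts were taken on 4× images of lung cancer cell lines in 1536-well plates, 5 days after pin-tool dosing the day after seeding with one drug alone or a fixed anchor-drug dose plus five library-drug doses (not always all listed) in √10 steps.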

Compound in the experiment “OSI-027 + Bortezomib”: COc1cccc2cc(-c3nc([C@H]4CC[C@H](C(=O)O)CC4)n4ncnc(N)c34)[nH]c12 [OSI-027] + CC(C)C[C@H](NC(=O)[C@H](Cc1ccccc1)NC(=O)c1cnccn1)B(O)O [Bortezomib] (partner 0.002 µM)
Summed up:
as §1

Compound in the experiment “Alpelisib + Decitabine”: Cc1nc(NC(=O)N2CCC[C@H]2C(N)=O)sc1-c1ccnc(C(C)(C)C(F)(F)F)c1 [Alpelisib] + Nc1ncn([C@H]2C[C@H](O)[C@@H](CO)O2)c(=O)n1 [Decitabine] (partner 2 µM)
Summed up:
as §1

Compound in the experiment “OSI-027 + Olaparib”: COc1cccc2cc(-c3nc([C@H]4CC[C@H](C(=O)O)CC4)n4ncnc(N)c34)[nH]c12 [OSI-027] + O=C(c1cc(Cc2n[nH]c(=O)c3ccccc23)ccc1F)N1CCN(C(=O)C2CC2)CC1 [Olaparib] (partner 8 µM)
Summed up:
as §1

PC-14: the relative viability with Vemurafenib + Dasatinib (first compound 0.03162 µM) worked out at 0.229; with Vemurafenib + Dasatinib (first compound 0.3162 µM), 0.228; in the experiment with Vemurafenib + Dasatinib (first compound 1 µM), 0.267; with OSI-027 + Bortezomib (first compound 0.01 µM), 1.03; with OSI-027 + Bortezomib (first compound 0.03162 µM) it was 0.93; with OSI-027 + Bortezomib (first compound 0.1 µM) it was 0.955. The relative viability with OSI-027 + Bortezomib (first compound 0.3162 µM) came to 0.989; with OSI-027 + Bortezomib (first compound 1 µM) it was 0.652; with Alpelisib + Decitabine (first compound 0.04 µM) it was 0.244; with Alpelisib + Decitabine (first compound 0.1265 µM), 0.243; with Alpelisib + Decitabine (first compound 0.4 µM) it was 0.248; with Alpelisib + Decitabine (first compound 1.265 µM), 0.196. In addition, the relative viability amounted to 0.221 with Alpelisib + Decitabine (first compound 4 µM); 0.228 in the experiment with OSI-027 + Olaparib (first compound 0.01 µM); 0.267 with OSI-027 + Olaparib (first compound 0.03162 µM); 0.292 with OSI-027 + Olaparib (first compound 0.1 µM); 0.306 with OSI-027 + Olaparib (first compound 0.3162 µM); 0.23 in the experiment with OSI-027 + Olaparib (first compound 1 µM).

For RERF-LC-KJ, the relative viability was 0.768 with Vemurafenib + Dasatinib (first compound 0.03162 µM); 0.768 with Vemurafenib + Dasatinib (first compound 0.1 µM); 0.586 with Vemurafenib + Dasatinib (first compound 0.3162 µM); 0.786 in the experiment with Vemurafenib + Dasatinib (first compound 1 µM); 1.18 with OSI-027 + Bortezomib (first compound 0.01 µM); 0.948 with OSI-027 + Bortezomib (first compound 0.03162 µM). Moreover, the relative viability in the experiment with OSI-027 + Bortezomib (first compound 0.1 µM) is 1.03; with OSI-027 + Bortezomib (first compound 0.3162 µM) it was 0.808; with OSI-027 + Bortezomib (first compound 1 µM), 0.511; with Alpelisib + Decitabine (first compound 0.04 µM) it was 0.668; in the experiment with Alpelisib + Decitabine (first compound 0.1265 µM), 0.638; with Alpelisib + Decitabine (first compound 0.4 µM) it was 0.706. For the same cell line, the relative viability with Alpelisib + Decitabine (first compound 1.265 µM) came out at 0.5; in the experiment with Alpelisib + Decitabine (first compound 4 µM), 0.536; with OSI-027 + Olaparib (first compound 0.01 µM), 0.829; with OSI-027 + Olaparib (first compound 0.03162 µM), 0.866; with OSI-027 + Olaparib (first compound 0.1 µM) it was 0.82; with OSI-027 + Olaparib (first compound 0.3162 µM) it was 0.798. The relative viability with OSI-027 + Olaparib (first compound 1 µM) was found to be 0.496.

Regarding SK-LU-1, the relative viability with Vemurafenib + Dasatinib (first compound 0.03162 µM) came out at 0.16; with Vemurafenib + Dasatinib (first compound 0.1 µM), 0.17; with Vemurafenib + Dasatinib (first compound 0.3162 µM), 0.159; with Vemurafenib + Dasatinib (first compound 1 µM), 0.185; in the experiment with OSI-027 + Bortezomib (first compound 0.01 µM) it was 1.01; with OSI-027 + Bortezomib (first compound 0.03162 µM), 1.26. In addition, the relative viability was 0.75 in the experiment with OSI-027 + Bortezomib (first compound 0.1 µM); 0.655 in the experiment with OSI-027 + Bortezomib (first compound 0.3162 µM); 0.404 in the experiment with OSI-027 + Bortezomib (first compound 1 µM); 0.649 in the experiment with Alpelisib + Decitabine (first compound 0.04 µM); 0.645 in the experiment with Alpelisib + Decitabine (first compound 0.1265 µM); 0.633 with Alpelisib + Decitabine (first compound 0.4 µM). In addition, the relative viability with Alpelisib + Decitabine (first compound 1.265 µM) is 0.577; with Alpelisib + Decitabine (first compound 4 µM), 0.589; in the experiment with OSI-027 + Olaparib (first compound 0.01 µM), 0.399; with OSI-027 + Olaparib (first compound 0.03162 µM), 0.43; in the experiment with OSI-027 + Olaparib (first compound 0.1 µM) it was 0.396; in the experiment with OSI-027 + Olaparib (first compound 0.3162 µM), 0.359. Moreover, the relative viability in the experiment with OSI-027 + Olaparib (first compound 1 µM) was 0.265.

As for SW 1573, the relative viability with Vemurafenib + Dasatinib (first compound 0.03162 µM) is 0.567; in the experiment with Vemurafenib + Dasatinib (first compound 0.1 µM), 0.428; with Vemurafenib + Dasatinib (first compound 0.3162 µM) it was 0.36; with Vemurafenib + Dasatinib (first compound 1 µM) it was 0.347; in the experiment with OSI-027 + Bortezomib (first compound 0.01 µM) it was 1.18; in the experiment with OSI-027 + Bortezomib (first compound 0.03162 µM), 0.897. Further, the relative viability in the experiment with OSI-027 + Bortezomib (first compound 0.1 µM) stood at 0.831; with OSI-027 + Bortezomib (first compound 0.3162 µM), 0.776; in the experiment with OSI-027 + Bortezomib (first compound 1 µM), 0.732; in the experiment with Alpelisib + Decitabine (first compound 0.04 µM), 0.489; with Alpelisib + Decitabine (first compound 0.1265 µM), 0.453; with Alpelisib + Decitabine (first compound 0.4 µM), 0.626. The relative viability in the experiment with Alpelisib + Decitabine (first compound 1.265 µM) was 0.365; with Alpelisib + Decitabine (first compound 4 µM) it was 0.359; with OSI-027 + Olaparib (first compound 0.01 µM), 0.485; with OSI-027 + Olaparib (first compound 0.03162 µM) it was 0.513; with OSI-027 + Olaparib (first compound 0.1 µM) it was 0.398; with OSI-027 + Olaparib (first compound 0.3162 µM) it was 0.444. Besides, in the experiment with OSI-027 + Olaparib (first compound 1 µM), the relative viability came out at 0.293.
